Laboratory results reported in ChEMBL document CHEMBL5303573, “Mapping human microbiome drug metabolism by gut bacteria and their genes” (Nature, 2019).

Key:
Type in all cases: ADME
Design in all cases: dose 2 uM
Conditions in all cases: 2 µM
Endoglucanase E (EGE) = molecular target: T1, Endoglucanase E (EGE) (Bacteroides thetaiotaomicron, UniProt Q8AAL9); test: (§1) The drug is tested on Bacteroides thetaiotaomicron strain: VPI-5482 for biotransformation. The drug concentrations were measured before and after a 12-h incubation by liquid-chromatography-coupled mass spectrometry (LC–MS)
T1 sequence (Q8AAL9 whole entry): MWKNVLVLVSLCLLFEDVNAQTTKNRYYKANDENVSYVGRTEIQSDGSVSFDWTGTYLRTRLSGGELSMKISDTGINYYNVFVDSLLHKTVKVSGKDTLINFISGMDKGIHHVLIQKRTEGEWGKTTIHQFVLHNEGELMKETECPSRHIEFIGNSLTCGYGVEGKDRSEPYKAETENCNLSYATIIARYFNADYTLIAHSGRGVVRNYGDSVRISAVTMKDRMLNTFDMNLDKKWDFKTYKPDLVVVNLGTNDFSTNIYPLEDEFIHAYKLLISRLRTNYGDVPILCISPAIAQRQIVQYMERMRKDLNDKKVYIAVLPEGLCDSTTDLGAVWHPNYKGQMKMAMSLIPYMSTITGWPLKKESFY

[1] = molecular target: T2, Sialic acid-specific 9-O-acetylesterase (Bacteroides thetaiotaomicron, UniProt Q8A0D0); test: as §1
T2 sequence (Q8A0D0 whole entry): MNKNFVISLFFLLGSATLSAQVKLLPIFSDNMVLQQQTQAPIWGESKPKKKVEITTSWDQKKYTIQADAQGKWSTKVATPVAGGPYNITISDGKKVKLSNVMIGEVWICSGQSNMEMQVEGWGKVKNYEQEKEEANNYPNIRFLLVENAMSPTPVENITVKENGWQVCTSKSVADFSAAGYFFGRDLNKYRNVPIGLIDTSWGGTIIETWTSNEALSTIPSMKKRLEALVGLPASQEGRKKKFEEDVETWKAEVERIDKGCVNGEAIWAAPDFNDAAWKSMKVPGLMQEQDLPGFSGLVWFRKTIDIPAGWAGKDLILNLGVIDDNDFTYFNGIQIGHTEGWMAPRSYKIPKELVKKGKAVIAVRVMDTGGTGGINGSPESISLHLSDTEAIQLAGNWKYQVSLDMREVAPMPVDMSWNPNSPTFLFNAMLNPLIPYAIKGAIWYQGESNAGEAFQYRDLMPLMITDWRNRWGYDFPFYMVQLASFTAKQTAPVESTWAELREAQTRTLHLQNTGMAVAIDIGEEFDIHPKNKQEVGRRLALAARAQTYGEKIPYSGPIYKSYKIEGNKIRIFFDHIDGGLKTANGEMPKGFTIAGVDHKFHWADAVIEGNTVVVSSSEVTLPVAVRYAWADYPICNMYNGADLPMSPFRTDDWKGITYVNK

Lipoprotein = molecular target: T3, Lipoprotein (Bacteroides thetaiotaomicron, UniProt Q8A343); test: as §1
T3 sequence (Q8A343 whole entry): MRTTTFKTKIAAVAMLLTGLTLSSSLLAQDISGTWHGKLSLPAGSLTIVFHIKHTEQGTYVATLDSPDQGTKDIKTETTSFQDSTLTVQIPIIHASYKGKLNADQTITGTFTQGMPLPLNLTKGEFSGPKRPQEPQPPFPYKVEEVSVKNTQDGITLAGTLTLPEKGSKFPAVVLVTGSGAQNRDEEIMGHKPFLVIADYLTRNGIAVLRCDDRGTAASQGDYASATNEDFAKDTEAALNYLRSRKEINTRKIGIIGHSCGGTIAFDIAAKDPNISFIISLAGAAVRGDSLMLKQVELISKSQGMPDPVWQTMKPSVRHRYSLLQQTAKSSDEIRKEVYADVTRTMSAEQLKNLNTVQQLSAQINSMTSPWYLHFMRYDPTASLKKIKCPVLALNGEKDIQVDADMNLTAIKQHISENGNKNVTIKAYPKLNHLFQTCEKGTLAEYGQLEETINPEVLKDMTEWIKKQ

General stress protein = General stress protein (Bacteroides thetaiotaomicron, UniProt Q8A7U5); test: as §1
[2] = molecular target: T4, Lipolytic enzyme, G-D-S-L family (Bacteroides thetaiotaomicron, UniProt Q8A0C5); test: as §1
T4 sequence (Q8A0C5 whole entry): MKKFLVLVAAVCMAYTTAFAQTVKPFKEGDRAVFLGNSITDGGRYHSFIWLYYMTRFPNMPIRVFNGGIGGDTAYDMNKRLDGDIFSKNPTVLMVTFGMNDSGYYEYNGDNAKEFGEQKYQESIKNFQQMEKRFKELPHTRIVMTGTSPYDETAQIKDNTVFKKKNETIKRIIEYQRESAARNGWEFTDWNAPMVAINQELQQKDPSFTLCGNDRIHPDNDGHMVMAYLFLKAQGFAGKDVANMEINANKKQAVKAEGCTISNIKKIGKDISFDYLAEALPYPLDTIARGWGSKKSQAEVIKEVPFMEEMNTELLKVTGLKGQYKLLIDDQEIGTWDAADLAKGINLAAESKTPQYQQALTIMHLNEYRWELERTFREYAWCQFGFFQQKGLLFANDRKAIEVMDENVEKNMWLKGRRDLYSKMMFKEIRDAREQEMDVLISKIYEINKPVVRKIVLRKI

[3] = molecular target: T5, 3-oxo-5-alpha-steroid 4-dehydrogenase (Bacteroides thetaiotaomicron, UniProt Q8A618); test: as §1
T5 sequence (Q8A618 whole entry): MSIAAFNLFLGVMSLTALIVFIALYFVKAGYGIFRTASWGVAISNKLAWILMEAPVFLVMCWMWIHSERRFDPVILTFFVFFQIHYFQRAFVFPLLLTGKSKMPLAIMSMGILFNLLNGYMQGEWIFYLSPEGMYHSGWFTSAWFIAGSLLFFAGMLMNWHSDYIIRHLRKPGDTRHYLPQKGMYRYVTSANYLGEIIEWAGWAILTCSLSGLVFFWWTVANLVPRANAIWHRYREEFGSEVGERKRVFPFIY

Acyltransferase = molecular target: T6, Acyltransferase (Bacteroides thetaiotaomicron, UniProt Q8A575); test: as §1
T6 sequence (Q8A575 whole entry): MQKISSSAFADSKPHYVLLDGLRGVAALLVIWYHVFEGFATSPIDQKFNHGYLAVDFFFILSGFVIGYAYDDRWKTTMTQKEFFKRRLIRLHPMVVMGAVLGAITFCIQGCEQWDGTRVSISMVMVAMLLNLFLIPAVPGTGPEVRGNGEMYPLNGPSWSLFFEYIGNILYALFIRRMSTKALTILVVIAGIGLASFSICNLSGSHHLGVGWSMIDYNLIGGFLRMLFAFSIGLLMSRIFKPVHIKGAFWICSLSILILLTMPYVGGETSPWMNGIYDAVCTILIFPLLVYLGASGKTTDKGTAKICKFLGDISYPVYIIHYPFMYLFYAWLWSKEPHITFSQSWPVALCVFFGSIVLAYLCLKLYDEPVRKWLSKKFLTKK

Acylhydrolase = molecular target: T7, Acylhydrolase (Bacteroides thetaiotaomicron, UniProt Q8AA96); test: as §1
T7 sequence (Q8AA96 whole entry): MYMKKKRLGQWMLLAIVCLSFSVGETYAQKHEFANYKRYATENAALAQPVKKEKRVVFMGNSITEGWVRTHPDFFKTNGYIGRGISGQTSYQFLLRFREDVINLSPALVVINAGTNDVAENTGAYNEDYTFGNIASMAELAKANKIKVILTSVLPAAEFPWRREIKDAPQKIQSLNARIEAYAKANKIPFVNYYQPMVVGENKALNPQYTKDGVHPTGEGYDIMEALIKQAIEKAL

General stress protein, sequence (Q8A7U5 1-138, change not shown): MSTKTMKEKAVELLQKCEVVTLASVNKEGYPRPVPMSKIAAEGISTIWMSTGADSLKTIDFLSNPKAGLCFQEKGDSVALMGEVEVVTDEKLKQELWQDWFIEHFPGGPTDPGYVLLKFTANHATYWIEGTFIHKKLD

SMILES: CC(=O)OCC(=O)[C@@]12N=C(C)O[C@@H]1C[C@H]1[C@@H]3CCC4=CC(=O)C=C[C@]4(C)[C@H]3[C@@H](O)C[C@@]12C [DEFLAZACORT]
- Bacterial Biotransformation (Endoglucanase E (EGE)): Compound NOT metabolized
- Bacterial Biotransformation [1]: Compound NOT metabolized
- Bacterial Biotransformation (Lipoprotein): Compound NOT metabolized
- Bacterial Biotransformation (General stress protein): Compound NOT metabolized
- Bacterial Biotransformation [2]: Compound metabolized
- Bacterial Biotransformation [3]: Compound NOT metabolized
- Bacterial Biotransformation (Acyltransferase): Compound NOT metabolized
- Bacterial Biotransformation (Acylhydrolase): Compound metabolized

SMILES: CC(=O)Oc1ccc(C(c2ccc(OC(C)=O)cc2)c2ccccn2)cc1 [BISACODYL]
- Bacterial Biotransformation (Endoglucanase E (EGE)): Compound metabolized
- Bacterial Biotransformation [1]: Compound metabolized
- Bacterial Biotransformation (Lipoprotein): Compound NOT metabolized
- Bacterial Biotransformation (General stress protein): Compound NOT metabolized
- Bacterial Biotransformation [2]: Compound metabolized
- Bacterial Biotransformation [3]: Compound NOT metabolized
- Bacterial Biotransformation (Acyltransferase): Compound NOT metabolized
- Bacterial Biotransformation (Acylhydrolase): Compound metabolized

SMILES: CCOC(=O)C1=C(C)NC(C)=C(C(=O)OC)C1c1cccc([N+](=O)[O-])c1 (stereo not drawn) [NITRENDIPINE]
- Bacterial Biotransformation [1]: Compound NOT metabolized
- Bacterial Biotransformation (General stress protein): Compound NOT metabolized
- Bacterial Biotransformation [2]: Compound NOT metabolized
- Bacterial Biotransformation [3]: Compound NOT metabolized
- Bacterial Biotransformation (Acyltransferase): Compound NOT metabolized
- Bacterial Biotransformation (Acylhydrolase): Compound NOT metabolized

SMILES: COc1ccnc(C[S+]([O-])c2nc3ccc(OC(F)F)cc3[nH]2)c1OC (stereo not drawn) [PANTOPRAZOLE]
- Bacterial Biotransformation (Endoglucanase E (EGE)): Compound NOT metabolized
- Bacterial Biotransformation [1]: Compound NOT metabolized
- Bacterial Biotransformation (Lipoprotein): Compound NOT metabolized
- Bacterial Biotransformation (General stress protein): Compound NOT metabolized
- Bacterial Biotransformation [2]: Compound NOT metabolized
- Bacterial Biotransformation [3]: Compound NOT metabolized
- Bacterial Biotransformation (Acyltransferase): Compound NOT metabolized
- Bacterial Biotransformation (Acylhydrolase): Compound NOT metabolized

SMILES: C#C[C@]1(O)CC[C@H]2[C@@H]3CCC4=Cc5oncc5C[C@]4(C)[C@H]3CC[C@@]21C [DANAZOL]
- Bacterial Biotransformation (Endoglucanase E (EGE)): Compound NOT metabolized
- Bacterial Biotransformation [1]: Compound NOT metabolized
- Bacterial Biotransformation (Lipoprotein): Compound NOT metabolized
- Bacterial Biotransformation (General stress protein): Compound NOT metabolized
- Bacterial Biotransformation [2]: Compound NOT metabolized
- Bacterial Biotransformation [3]: Compound NOT metabolized
- Bacterial Biotransformation (Acyltransferase): Compound NOT metabolized
- Bacterial Biotransformation (Acylhydrolase): Compound metabolized

SMILES: CC(=O)SCC(Cc1ccccc1)C(=O)NCC(=O)OCc1ccccc1 (stereo not drawn) [RACECADOTRIL]
- Bacterial Biotransformation (Endoglucanase E (EGE)): Compound NOT metabolized
- Bacterial Biotransformation [1]: Compound metabolized
- Bacterial Biotransformation (Lipoprotein): Compound metabolized
- Bacterial Biotransformation (General stress protein): Compound NOT metabolized
- Bacterial Biotransformation [2]: Compound metabolized
- Bacterial Biotransformation [3]: Compound NOT metabolized
- Bacterial Biotransformation (Acyltransferase): Compound NOT metabolized
- Bacterial Biotransformation (Acylhydrolase): Compound metabolized

SMILES: O=C(O)c1cc(/N=N/c2ccc(S(=O)(=O)Nc3ccccn3)cc2)ccc1O [SULFASALAZINE]
- Bacterial Biotransformation (Endoglucanase E (EGE)): Compound NOT metabolized
- Bacterial Biotransformation [1]: Compound NOT metabolized
- Bacterial Biotransformation (Lipoprotein): Compound NOT metabolized
- Bacterial Biotransformation (General stress protein): Compound metabolized
- Bacterial Biotransformation [3]: Compound NOT metabolized
- Bacterial Biotransformation (Acyltransferase): Compound NOT metabolized

SMILES: CC(=O)Nc1ccc(OC(C)=O)cc1 [DIACETAMATE]
- Bacterial Biotransformation (Endoglucanase E (EGE)): Compound metabolized
- Bacterial Biotransformation [1]: Compound metabolized
- Bacterial Biotransformation (Lipoprotein): Compound NOT metabolized
- Bacterial Biotransformation (General stress protein): Compound NOT metabolized
- Bacterial Biotransformation [2]: Compound metabolized
- Bacterial Biotransformation [3]: Compound NOT metabolized
- Bacterial Biotransformation (Acyltransferase): Compound NOT metabolized
- Bacterial Biotransformation (Acylhydrolase): Compound metabolized

SMILES: CCN(CC)C(=O)/C(C#N)=C/c1cc(O)c(O)c([N+](=O)[O-])c1 [ENTACAPONE]
- Bacterial Biotransformation (Endoglucanase E (EGE)): Compound NOT metabolized
- Bacterial Biotransformation [1]: Compound NOT metabolized
- Bacterial Biotransformation (Lipoprotein): Compound NOT metabolized
- Bacterial Biotransformation (General stress protein): Compound NOT metabolized
- Bacterial Biotransformation [2]: Compound NOT metabolized
- Bacterial Biotransformation [3]: Compound NOT metabolized
- Bacterial Biotransformation (Acyltransferase): Compound NOT metabolized
- Bacterial Biotransformation (Acylhydrolase): Compound NOT metabolized
